Measured values published in patent US8507533B2, “Glucagon receptor modulators” (Pfizer Inc., priority 2011, dated 2013).

Biological target: human glucagon receptor (Homo sapiens (Human), UniProt P47871)
Assay: Glucagon cAMP Assay (Cisbio cAMP detection)
Format: cell-based
Conditions: CHOK1 cells stably transfected with the human glucagon receptor; block of glucagon induced cAMP production; Kb by modified Cheng-Prusoff equation
Method: The Cisbio cAMP detection assay is used to determine the ability of punitive glucagon antagonist to block glucagon induced cAMP production. Potential glucagon antagonists are re-suspended and diluted in 100% DMSO. Prior to use in the Glucagon cAMP assay 100×DMSO compound stocks are diluted 20× with DMEM-F12 media (Invitrogen) containing either 0.1% or 4% BSA. […] 2 μls of 5% DMSO or known glucagon antagonist are added to each plate to define the assay window. CHOK1 cells stably transfected with the human glucagon receptor are removed from culture flasks with cell dissociation buffer. Cell pellets are re-suspended, at a concentration of 8.3e^5 cells/ml in DMEM-F12 with or without 4% BSA and 200 uM IBMX. 6 μls of cell suspensions are added to the assay plates. Plates are incubated for 20 min at room temperature prior to the addition of a 100 μM challenge dose of glucagon. On a separate plate glucagon dose response curves are run to determine the EC50 of glucagon. After a 30 min room temperature incubation the reaction is terminated by the addition of lysis buffer containing the cAMP detection reagents. Plates are incubated for an additional 60 min at room temperature prior to being read on the Perkin Elmer fluorescent plate reader. Raw is converted to nM of cAMP produced based on a cAMP standard curve. Converted data is then analyzed using the Pfizer data analysis program. IC50 values are determined from the generated sigmoidal dose response curves. Kb values are calculated using a modified Cheng-Prusoff equation. N is the number of times the compound was assayed.

human glucagon receptor, sequence (P47871 26-477): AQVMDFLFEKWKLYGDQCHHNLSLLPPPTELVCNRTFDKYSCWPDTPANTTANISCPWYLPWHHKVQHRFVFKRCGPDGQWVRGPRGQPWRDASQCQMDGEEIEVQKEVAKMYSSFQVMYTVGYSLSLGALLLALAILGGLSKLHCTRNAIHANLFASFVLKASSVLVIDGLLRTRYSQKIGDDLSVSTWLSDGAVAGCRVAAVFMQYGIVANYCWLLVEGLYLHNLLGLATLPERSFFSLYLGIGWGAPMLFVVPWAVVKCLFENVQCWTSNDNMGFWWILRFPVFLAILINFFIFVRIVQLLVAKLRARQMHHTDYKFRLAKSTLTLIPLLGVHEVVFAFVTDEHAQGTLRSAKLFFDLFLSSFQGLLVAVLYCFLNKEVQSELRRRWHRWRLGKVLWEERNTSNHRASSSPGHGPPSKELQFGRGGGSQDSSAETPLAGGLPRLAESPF

Kb | Compound
494 nM | CC(C)CC(Nc1ccc(C(=O)NCCC(=O)O)cn1)c1ccc(-n2cc(C(F)(F)F)cn2)cc1 (racemic) [Example 64, (+/−)-3-(6-(3-methyl-1-(4-(4-(trifluoromethyl)-1H-pyrazol-1-yl)phenyl)butylamino)nicotinamido)propanoic acid]
2840 nM | CCCC(Oc1ccc(-n2ccn3nccc23)cc1)c1ccc(C(=O)NCCC(=O)O)cc1 (racemic) [Example 41, (+/−)-3-(4-(1-(4-(1H-imidazo[1,2-b]pyrazol-1-yl)phenoxy)butyl)benzamido)propanoic acid]
6100 nM | CCCC(Oc1ccc(-c2ccnn2C)cc1)c1ccc(C(=O)NCCC(=O)O)cc1 (racemic) [Example 57, (+/−)-3-(4-(1-(4-(1-methyl-1H-pyrazol-5-yl)phenoxy)butyl)benzamido)propanoic acid]
3840 nM | CC(C)CC(Nc1ncc(C(=O)NCCC(=O)O)cn1)c1ccc(-n2cc(C(F)(F)F)cn2)cc1 (racemic) [Example 93, (+/−)-3-(2-(3-methyl-1-(4-(4-(trifluoromethyl)-1H-pyrazol-1-yl)phenyl)butylamino)pyrimidine-5-carboxamido)propanoic acid]
2410 nM | CCCC(Oc1ccc(-c2c(C)noc2C)cc1)c1ccc(C(=O)NCCC(=O)O)cc1 (racemic) [Example 52, (+/−)-3-(4-(1-(4-(3,5-dimethylisoxazol-4-yl)phenoxy)butyl)benzamido)propanoic acid]
1810 nM | CCCC(Oc1ccc(-c2cc[nH]n2)cc1)c1ccc(C(=O)NCCC(=O)O)cc1 (racemic) [Example 51, (+/−)-3-(4-(1-(4-(1H-pyrazol-3-yl)phenoxy)butyl)benzamido)propanoic acid]
2880 nM | O=C(O)CCNC(=O)c1ccc(C(CC2CC2)Oc2ccc(-n3cc(C(F)(F)F)cn3)cc2)cc1 (racemic) [Example 65, (+/−)-3-(4-(2-cyclopropyl-1-(4-(4-(trifluoromethyl)-1H-pyrazol-1-yl)phenoxy)ethyl)benzamido)propanoic acid]
3530 nM | CCCC(Oc1ccc(-c2cnn(C)c2)cc1)c1ccc(C(=O)NCCC(=O)O)cc1 (racemic) [Example 54, (+/−)-3-(4-(1-(4-(1-methyl-1H-pyrazol-4-yl)phenoxy)butyl)benzamido)propanoic acid]
5600 nM | CCCC(Nc1ccc(-n2cc(C)nn2)cc1)c1ccc(C(=O)NCCC(=O)O)cc1 (racemic) [Example 92, (+/−)-3-(4-(1-(4-(4-methyl-1H-1,2,3-triazol-1-yl)phenylamino)butyl)benzamido)propanoic acid]
226 nM | CC(C)(C)CC(Nc1ccc(-n2cnc(C(F)(F)F)c2)nc1)c1ccc(C(=O)NCCC(=O)O)cc1 (racemic) [Example 100, (+/−)-3-(4-(3,3-dimethyl-1-(6-(4-(trifluoromethyl)-1H-imidazol-1-yl)pyridine-3-ylamino)butyl)benzamido)propanoic acid]
> 2500 nM | CCCC(Oc1ccc(-n2cc3c(n2)CCC3)cc1)c1ccc(C(=O)NCCC(=O)O)cc1 (racemic) [Example 90, (+/−)-3-(4-(1-(4-(5,6-dihydrocyclopenta[c]pyrazol-2(4H)-yl)phenoxy)butyl)benzamido)propanoic acid]
1790 nM | CCCC(Oc1ccc(-n2c(C)c(C)c(C)c2C#N)cc1)c1ccc(C(=O)NCCC(=O)O)cc1 (racemic) [Example 35, (+/−)-3-(4-(1-(4-(2-cyano-3,4,5-trimethyl-1H-pyrrol-1-yl)phenoxy)butyl)benzamido)propanoic acid]
613 nM | CCCC(Nc1ccc(-n2cc(F)cn2)cc1)c1ccc(C(=O)NCCC(=O)O)cc1 (racemic) [Example 63, (+/−)-3-(4-(1-(4-(4-fluoro-1H-pyrazol-1-yl)phenylamino)butyl)benzamido)propanoic acid]
1360 nM | CCCC(Oc1ccc(-n2ccc(C)n2)cc1)c1ccc(C(=O)NCCC(=O)O)cc1 (racemic) [Example 29, (+/−)-3-(4-(1-(4-(3-methyl-1H-pyrazol-1-yl)phenoxy)butyl)benzamido)propanoic acid]
1120 nM | CCCC(Oc1ccc(-n2nc(CC)cc2CC)cc1)c1ccc(C(=O)NCCC(=O)O)cc1 (racemic) [Example 25, (+/−)-3-(4-(1-(4-(3,5-diethyl-1H-pyrazol-1-yl)phenoxy)butyl)benzamido)propanoic acid]
1030 nM | CCCC(Oc1ccc(-n2cc(CC)c(C)n2)cc1)c1ccc(C(=O)NCCC(=O)O)cc1 (racemic) [Example 24, (+/−)-3-(4-(1-(4-(4-ethyl-3-methyl-1H-pyrazol-1-yl)phenoxy)butyl)benzamido)propanoic acid]

Kb | Compound
3540 nM | Cc1cc(NC(CC(C)C)c2ccc(C(=O)NCCC(=O)O)cn2)cnc1-n1cc(C(F)(F)F)cn1 (racemic) [Example 102, (+/−)-3-(6-(3-methyl-1-(5-methyl-6-(4-(trifluoromethyl)-1H-pyrazol-1-yl)pyridin-3-ylamino)butyl)nicotinamido)propanoic acid]
7300 nM | CCCC(Oc1ccc(-c2c(C)nn(C)c2C)cc1)c1ccc(C(=O)NCCC(=O)O)cc1 (racemic) [Example 58, (+/−)-3-(4-(1-(4-(1,3,5-trimethyl-1H-pyrazol-4-yl)phenoxy)butyl)benzamido)propanoic acid]
1560 nM | CCCC(Oc1ccc(-n2nc(C)cc2OC)cc1)c1ccc(C(=O)NCCC(=O)O)cc1 (racemic) [Example 33, (+/−)-3-(4-(1-(4-(5-methoxy-3-methyl-1H-pyrazol-1-yl)phenoxy)butyl)benzamido)propanoic acid]
3110 nM | CCCC(Oc1ccc(-n2cnc(CC)c2CC)cc1)c1ccc(C(=O)NCCC(=O)O)cc1 (racemic) [Example 44, (+/−)-3-(4-(1-(4-(4,5-diethyl-1H-imidazol-1-yl)phenoxy)butyl)benzamido)propanoic acid]
1080 nM | CCCC(Oc1ccc(-n2ccc(C(C)C)n2)cc1)c1ccc(C(=O)NCCC(=O)O)cc1 (racemic) [Example 27, (+/−)-3-(4-(1-(4-(3-isopropyl-1H-pyrazol-1-yl)phenoxy)butyl)benzamido)propanoic acid]
2130 nM | CCCc1ccn(-c2ccc(OC(CCC)c3ccc(C(=O)NCCC(=O)O)cn3)cc2)n1 (racemic) [Example 38, (+/−)-3-(6-(1-(4-(3-propyl-1H-pyrazol-1-yl)phenoxy)butyl)nicotinamido)propanoic acid]
1910 nM | CCCC(Oc1ccc(-n2ccc(C(F)(F)F)n2)cc1)c1ccc(C(=O)NCCC(=O)O)cc1 (racemic) [Example 70, (+/−)-3-(4-(1-(4-(3-(trifluoromethyl)-1H-pyrazol-1-yl)phenoxy)butyl)benzamido)propanoic acid]
2640 nM | CCCC(Oc1ccc(-n2cnc(C(F)(F)F)n2)cc1)c1ccc(C(=O)NCCC(=O)O)cc1 (racemic) [Example 73, (+/−)-3-(4-(1-(4-(3-(trifluoromethyl)-1H-1,2,4-triazol-1-yl)phenoxy)butyl)benzamido)propanoic acid]
9390 nM | CCCC(Oc1ccc(-n2cnc(C(F)(F)F)c2)nc1)c1ccc(C(=O)NCCC(=O)O)cc1 (racemic) [Example 87, (+/−)-3-(4-(1-(6-(4-(trifluoromethyl)-1H-imidazol-1-yl)pyridine-3-yloxy)butyl)benzamido)propanoic acid]
32.2 nM | CCCC(Nc1ccc(-n2cc(-c3ccccc3)cn2)nc1)c1ccc(C(=O)NCCC(=O)O)cc1 (racemic) [Example 62, (+/−)-3-(4-(1-(6-(4-phenyl-1H-pyrazol-1-yl)pyridine-3-ylamino)butyl)benzamido)propanoic acid]
1590 nM | CCCC(Oc1ccc(-n2nc(C)cc2OCC)cc1)c1ccc(C(=O)NCCC(=O)O)cc1 (racemic) [Example 32, (+/−)-3-(4-(1-(4-(5-ethoxy-3-methyl-1H-pyrazol-1-yl)phenoxy)butyl)benzamido)propanoic acid]
2120 nM | CC(C)(C)CC(Oc1ccc(-n2cc(C(F)(F)F)cn2)cc1)c1ccc(C(=O)NCCC(=O)O)cc1 (racemic) [Example 71, (+/−)-3-(4-(3,3-dimethyl-1-(4-(4-(trifluoromethyl)-1H-pyrazol-1-yl)phenoxy)butyl)benzamido)propanoic acid]
1270 nM | CC(C)CC(Cc1ccc(-n2cc(C(F)(F)F)cn2)cc1)c1ccc(C(=O)NCCC(=O)O)cc1 (racemic) [Example 4, (+/−)-3-(4-(4-methyl-1-(4-(4-(trifluoromethyl)-1H-pyrazol-1-yl)phenyl)pentan-2-yl)benzamido)propanoic acid]
1760 nM | CCCC(Oc1ccc(-n2ccc(C)c2C#N)cc1)c1ccc(C(=O)NCCC(=O)O)cc1 (racemic) [Example 37, (+/−)-3-(4-(1-(4-(2-cyano-3-methyl-1H-pyrrol-1-yl)phenoxy)butyl)benzamido)propanoic acid]
10300 nM | CCCC(Oc1ccc(-n2cnc(C)c2C)cc1)c1ccc(C(=O)NCCC(=O)O)cc1 (racemic) [Example 49, (+/−)-3-(4-(1-(4-(4,5-dimethyl-1H-imidazol-1-yl)phenoxy)butyl)benzamido)propanoic acid]
